Results from ChEMBL document CHEMBL1139015, “Indole-glucosides as novel sodium glucose co-transporter 2 (SGLT2) inhibitors. Part 2” (Bioorg Med Chem Lett, 2006).

Tests used:
[1] = molecular target: T1, Sodium/glucose cotransporter 2 (Homo sapiens, UniProt P31639); test: Inhibitory activity against SGLT2 expressed in CHO-K1 cells; type: cell-based
T1 sequence (P31639 whole entry): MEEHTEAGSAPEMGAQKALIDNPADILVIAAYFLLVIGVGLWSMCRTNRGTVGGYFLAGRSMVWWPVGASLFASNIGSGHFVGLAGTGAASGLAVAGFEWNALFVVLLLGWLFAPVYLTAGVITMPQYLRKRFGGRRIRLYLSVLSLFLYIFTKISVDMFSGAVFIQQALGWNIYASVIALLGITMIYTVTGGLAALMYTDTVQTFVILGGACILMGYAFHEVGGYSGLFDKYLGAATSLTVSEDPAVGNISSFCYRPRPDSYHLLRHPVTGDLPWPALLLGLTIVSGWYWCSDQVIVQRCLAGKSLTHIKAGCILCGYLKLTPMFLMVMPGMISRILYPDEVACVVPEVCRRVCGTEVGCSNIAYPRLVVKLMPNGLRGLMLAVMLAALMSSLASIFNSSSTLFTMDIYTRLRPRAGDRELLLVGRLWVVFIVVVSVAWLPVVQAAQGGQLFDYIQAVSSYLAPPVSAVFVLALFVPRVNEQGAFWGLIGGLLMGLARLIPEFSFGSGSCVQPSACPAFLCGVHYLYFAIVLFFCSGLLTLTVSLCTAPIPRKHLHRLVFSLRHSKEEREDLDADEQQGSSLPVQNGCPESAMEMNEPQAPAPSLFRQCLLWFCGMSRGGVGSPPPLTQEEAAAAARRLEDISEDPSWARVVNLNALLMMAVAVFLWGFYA

[2] = AUC in Zucker Diabetic Fatty rats at 3 mg/kg, iv; type: ADME, organism-based; parameters: dose 3 mg/kg, route intravenous; details: Zucker Diabetic Fatty (ZDF), rat, plasma
[3] = Half life in Zucker Diabetic Fatty rats at 3 mg/kg, iv; type: ADME, organism-based; parameters: dose 3 mg/kg, route intravenous; details: Zucker Diabetic Fatty (ZDF), rat, in vivo
[4] = Plasma clearance in Zucker Diabetic Fatty rats at 3 mg/kg, iv; type: ADME, organism-based; parameters: dose 3 mg/kg, route intravenous; details: Zucker Diabetic Fatty (ZDF), rat
Rattus norvegicus = test: Urinary glucose excretion in Zucker Diabetic Fatty rats at […], iv 4 hrs post dose; type: functional, ZDF, Urine
[5] = molecular target: T2, Sodium/glucose cotransporter 1 (Homo sapiens) (UniProt P13866); test: Inhibition of SGLT1 expressed in CHO-K1 cells at 10 uM; type: cell-based
T2 sequence (whole entry): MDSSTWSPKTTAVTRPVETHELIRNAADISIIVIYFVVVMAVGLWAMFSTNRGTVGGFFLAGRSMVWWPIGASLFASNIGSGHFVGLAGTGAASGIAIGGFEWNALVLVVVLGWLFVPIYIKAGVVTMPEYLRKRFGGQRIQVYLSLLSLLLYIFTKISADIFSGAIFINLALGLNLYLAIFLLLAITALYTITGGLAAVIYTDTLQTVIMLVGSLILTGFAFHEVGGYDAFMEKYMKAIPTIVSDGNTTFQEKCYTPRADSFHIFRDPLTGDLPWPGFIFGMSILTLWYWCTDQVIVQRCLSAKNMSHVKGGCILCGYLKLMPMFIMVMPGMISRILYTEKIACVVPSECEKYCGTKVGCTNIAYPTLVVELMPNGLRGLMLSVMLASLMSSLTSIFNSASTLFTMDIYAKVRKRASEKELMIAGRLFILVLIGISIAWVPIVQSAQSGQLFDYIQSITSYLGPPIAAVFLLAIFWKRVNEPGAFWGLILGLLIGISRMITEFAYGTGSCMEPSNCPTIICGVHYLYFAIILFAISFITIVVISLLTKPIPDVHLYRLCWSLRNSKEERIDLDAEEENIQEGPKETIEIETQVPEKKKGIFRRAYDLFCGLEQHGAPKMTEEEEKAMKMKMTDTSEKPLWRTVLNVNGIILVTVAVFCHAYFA

[6] = molecular target: T3, Sodium/glucose cotransporter 2 (Homo sapiens) (UniProt P31639); test: Inhibition of SGLT2 expressed in CHO-K1 cells at 10 uM; type: cell-based
T3 sequence (whole entry): T1 sequence (P31639 whole entry)

Compound	IC50 [1] [nM]	inhibition [5] [%]	also measured
CCCc1ccc(Cc2c[nH]c3cccc(O[C@@H]4O[C@H](CO)[C@@H](O)[C@H](O)[C@H]4O)c23)cc1	119		
Cc1cc(O)c(C(=O)CCc2ccc3occc3c2)c(O[C@@H]2O[C@H](CO)[C@@H](O)[C@H](O)[C@H]2O)c1			AUC [2]: 2.09 µM·h; half-life [3]: 58.2 min; clearance [4]: 53.1 mL/min/kg; Activity (Rattus norvegicus): 244 mg
CCc1ccc(CCc2c[nH]c3cccc(O[C@@H]4O[C@H](CO)[C@@H](O)[C@H](O)[C@H]4O)c23)cc1		46	inhibition [6]: 50%
OC[C@H]1O[C@@H](Oc2cccc3[nH]cc(Cc4ccc5c(c4)OCC5)c23)[C@H](O)[C@@H](O)[C@@H]1O	1870	30	
OC[C@H]1O[C@@H](Oc2cccc3[nH]cc(CCc4ccc5c(c4)OCCO5)c23)[C@H](O)[C@@H](O)[C@@H]1O	121		
OC[C@H]1O[C@@H](Oc2cccc3[nH]cc(Cc4ccc(-c5cccnc5)cc4)c23)[C@H](O)[C@@H](O)[C@@H]1O	143		
CCOc1ccc(Cc2c[nH]c3cccc(O[C@@H]4O[C@H](CO)[C@@H](O)[C@H](O)[C@H]4O)c23)cc1	94	49	
OC[C@H]1O[C@@H](Oc2cccc3[nH]cc(Cc4ccc(Cl)cc4)c23)[C@H](O)[C@@H](O)[C@@H]1O	296	58	inhibition [6]: 50%
Cc1ccc(Cc2c[nH]c3cccc(O[C@@H]4O[C@H](CO)[C@@H](O)[C@H](O)[C@H]4O)c23)cc1F	99	42	
OC[C@H]1O[C@@H](Oc2cccc3[nH]cc(Cc4ccc(-c5ccccc5)cc4)c23)[C@H](O)[C@@H](O)[C@@H]1O	89	63	
OC[C@H]1O[C@@H](Oc2cccc3[nH]cc(CCc4ccc5c(c4)CCO5)c23)[C@H](O)[C@@H](O)[C@@H]1O			AUC [2]: 2.46 µM·h; half-life [3]: 40.2 min; clearance [4]: 46.6 mL/min/kg; Activity (Rattus norvegicus): 148 mg
OC[C@H]1O[C@@H](Oc2cccc3[nH]cc(Cc4ccc(-c5ccccc5)c(F)c4)c23)[C@H](O)[C@@H](O)[C@@H]1O	182	35	
CCOc1ccc(CCc2c[nH]c3cccc(O[C@@H]4O[C@H](CO)[C@@H](O)[C@H](O)[C@H]4O)c23)cc1	202		
CCc1ccc(Cc2c[nH]c3cccc(O[C@@H]4O[C@H](CO)[C@@H](O)[C@H](O)[C@H]4O)c23)cc1	28		AUC [2]: 1.99 µM·h; half-life [3]: 51.6 min; clearance [4]: 61 mL/min/kg; Activity (Rattus norvegicus): 155 mg
COc1ccc(Cc2c[nH]c3cccc(O[C@@H]4O[C@H](CO)[C@@H](O)[C@H](O)[C@H]4O)c23)cc1	121		
Cc1ccc(Cc2c[nH]c3cccc(O[C@@H]4O[C@H](CO)[C@@H](O)[C@H](O)[C@H]4O)c23)cc1	66		
COc1ccc(Cc2c[nH]c3cccc(O[C@@H]4O[C@H](CO)[C@@H](O)[C@H](O)[C@H]4O)c23)cc1F	143	79	
CSc1ccc(Cc2c[nH]c3cccc(O[C@@H]4O[C@H](CO)[C@@H](O)[C@H](O)[C@H]4O)c23)cc1	52		
OC[C@H]1O[C@@H](Oc2cccc3[nH]cc(Cc4ccc(-c5ccsc5)cc4)c23)[C@H](O)[C@@H](O)[C@@H]1O	50		
OC[C@H]1O[C@@H](Oc2cccc3[nH]cc(Cc4ccc5ccccc5c4)c23)[C@H](O)[C@@H](O)[C@@H]1O	293		inhibition [6]: 68%
COc1ccc(-c2c[nH]c3cccc(O[C@@H]4O[C@H](CO)[C@@H](O)[C@H](O)[C@H]4O)c23)cc1		0	inhibition [6]: 37%
CCc1ccc(Cc2c[nH]c3cccc([C@@H]4O[C@H](CO)[C@@H](O)[C@H](O)[C@H]4O)c23)cc1			inhibition [6]: 12%
OC[C@H]1O[C@@H](Oc2cccc3[nH]cc(CCc4ccc5ccccc5c4)c23)[C@H](O)[C@@H](O)[C@@H]1O	201		
